# Results as given in BindingDB's records for doi:10.1021/jm00006a013 (Universit&#224, 1995).
# Target: sigma receptor (Cavia porcellus)
# Assay: In vitro binding affinity measured on sigma opioid receptor using [3H]DTG as radioligand
row,Structure (SMILES),IC50
1,"COc1ccc2c(c1)C(CCCN1CCN(c3ccccc3OC)CC1)=CCC2 [1-[3-(7-Methoxy-3,4-dihydro-naphthalen-1-yl)-propyl]-4-(2-methoxy-phenyl)-piperazine]",228 nM
2,"COc1ccccc1N1CCN(CC/C=C2\CCCc3c(OC)cccc32)CC1 [1-{3-[5-Methoxy-3,4-dihydro-2H-naphthalen-(1E)-ylidene]-propyl}-4-(2-methoxy-phenyl)-piperazine]",52.2 nM
3,"COc1ccccc1N1CCN(CC/C=C2\CCCc3ccccc32)CC1 [1-{3-[3,4-Dihydro-2H-naphthalen-(1E)-ylidene]-propyl}-4-(2-methoxy-phenyl)-piperazine]",55 nM

# Further compounds by falling IC50, results first:
row,IC50,Structure (SMILES)
1,246 nM,"COc1ccc2c(c1)C(CCCN1CCN(c3ccccn3)CC1)=CCC2 [1-[3-(7-Methoxy-3,4-dihydro-naphthalen-1-yl)-propyl]-4-pyridin-2-yl-piperazine]"
2,138 nM,"COc1ccc2c(c1)C(SCCN1CCN(c3ccccc3OC)CC1)CCC2 (stereo unspecified) [1-(2-Methoxy-phenyl)-4-[2-(7-methoxy-1,2,3,4-tetrahydro-naphthalen-1-ylsulfanyl)-ethyl]-piperazine]"
3,125 nM,"COc1ccc2c(c1)C(CCCN1CCN(c3ccccn3)CC1)CCC2 (stereo unspecified) [1-[3-(7-Methoxy-1,2,3,4-tetrahydro-naphthalen-1-yl)-propyl]-4-pyridin-2-yl-piperazine]"
